# According to patent US20040175789A1, “G protein coupled receptors and dna sequences thereof” (priority 2003, published 2004):
# Tests used:
# [1] = target: T1, orphan receptor Singlet_413 (Homo sapiens, UniProt Q8TDS5); assay: Ligand fishing: transient Ca2+ signal (Flipr384, Fluo-4) in CHO-K1-CRE cells stably transfected with Singlet_413; format: cell-based; details: not primed
# T1 construct: expressed in transfected cells
# Method: (§1) Twenty-four hours before the experiment, the cells are havested, counted and seeded in 384-well plates at 10000 cells per wells and put at 37° C./5% CO2. The day of the experiment, the injection plates containing the compounds are prepared as described in the following table:
# (§2) The cells are loaded with 2 μM Fluo-4 in HBSS/Hepes buffer. After one hour incubation at 37° C./5% CO2, the cells are washed with HBSS/Hepes containing 2.5 mM probenecid (2 wash cycles+volume adjustment are performed). Plates that will be primed with ATP are adjusted to 20 μl final volume and plates that will directly receive the compounds are adjusted to 40 μl final volume. Four assay plates are primed with 20 μl ATP at 20 μM initial (10 μM final concentration) and are incubated at room temperature for 30 minutes. Compounds plates at 3 times the final concentration are then injected with the Flipr pipettor on both primed and not primed plates. The Flipr laser is setup on 0.6 watt, the exposure length at 0.4 sec. […] A 10 seconds baseline is recorded prior compounds injection. After the injection, the signal is recorded every second for one minute. Then, signal decay is measured for 20 additional seconds. Two statistics are exported: Fbasal and Fmax. For each well, a dF/F value is expressed with the following formula: (Fmax−Fbasal)/Fbasal is the basal fluorescence prior compound injection and Fmax is the peak value of the kinetic.
# Contig 88:1 = assay: Selectivity check: Ca2+ signal (Flipr) in CHO-CRE cells transfected with Contig 88:1; format: cell-based, human; details: not primed
# Method: as §1, §2
# (§3) These compounds are also tested against wild type cells and other transfected cells in order to check the selectivity.
# CHO-K1 (CHO-CRE) cells = assay: Selectivity check: Ca2+ signal (Flipr) in CHO-CRE CHO-K1 cells without receptor; format: cell-based; details: not primed
# Method: as §1, §2, §3
# CHO-K1-ATCC cells = assay: Selectivity check: Ca2+ signal (Flipr) in wild type CHO-K1-ATCC cells; format: cell-based; details: for dF/F (Fmax−Fbasal)/Fbasal, CHO-K1-ATCC, np: not primed
# Method: as §1, §2, §3
# T1 sequence (Q8TDS5 whole entry): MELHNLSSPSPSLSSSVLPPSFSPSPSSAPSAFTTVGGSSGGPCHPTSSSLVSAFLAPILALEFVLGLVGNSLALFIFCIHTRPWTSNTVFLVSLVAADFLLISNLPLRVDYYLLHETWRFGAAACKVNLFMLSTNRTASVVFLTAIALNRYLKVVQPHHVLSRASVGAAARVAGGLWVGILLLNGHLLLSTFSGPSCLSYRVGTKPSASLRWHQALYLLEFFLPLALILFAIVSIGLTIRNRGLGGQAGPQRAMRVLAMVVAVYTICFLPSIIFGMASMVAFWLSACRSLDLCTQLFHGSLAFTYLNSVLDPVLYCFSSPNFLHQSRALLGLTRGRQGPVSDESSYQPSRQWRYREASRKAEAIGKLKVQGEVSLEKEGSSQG
Structure (SMILES),"dF/F (Fmax−Fbasal)/Fbasal, CHO-CRE Singlet_413, np [1]","dF/F (Fmax−Fbasal)/Fbasal, CHO-CRE Contig 88:1, np (Contig 88:1)","dF/F (Fmax−Fbasal)/Fbasal, CHO-CRE CHO-K1, np (CHO-K1 (CHO-CRE) cells)","dF/F (Fmax−Fbasal)/Fbasal, CHO-K1-ATCC, np (CHO-K1-ATCC cells)",activity (Ca2+ signal) on the non-transfected cells (CHO-K1-ATCC cells; non-transfected cells)
"CCCCC/C=C\C[C@@H](O)/C=C/C=C/C=C/[C@@H](O)CCCC(=O)O (relative stereo) [Cpd 8, 5(S), 12(R)-DIHETE all trans]",0.01,0.01,−0.04,0.02,
"CCCCC/C=C\C/C=C\C/C=C\C=C\[C@@H](O)CCCC(=O)O [Cpd 1, 5(S)-HETE]",0.01,0.00,−0.02,0.02,
"CCCCC/C=C\C[C@@H]1O[C@H]1C(O)/C=C\C/C=C\CCCC(=O)O (stereo partly shown) [Cpd 7, HEPOXILIN B3]",0.02,0.00,−0.01,0.01,
"CCCCC/C=C\CC1OC1C/C=C\C/C=C\CCCC(=O)O (stereo not shown) [Cpd 9, 11,12-EPOXYEICOSATRIENOIC ACID]",0.02,0.02,−0.02,0.00,
"CC/C=C\C/C=C\C/C=C\C/C=C\C=C\C(O)CCCC(=O)O (racemic) [Cpd 5, (±)5-HEPE]",0.03,0.01,−0.04,0.03,
"CC/C=C\C/C=C\C/C=C\C/C=C\C/C=C\CCCC(=O)O [Cpd 12, EICOSAPENTAENOIC ACID (20:5 n-3)]",0.05,0.03,−0.04,0.02,
"CCCCC/C=C\C/C=C\C/C=C\C/C=C\CCCC(=O)OC(CO)CO [Cpd 14, 2-ARACHIDONOYLGLYCEROL]",0.02,0.00,−0.05,0.00,
"CCCCC/C=C\C/C=C\C/C=C\C=C\C(=O)CCCC(=O)O [Cpd 10, 5-KETOEICOSATETRAENOIC ACID]",0.01,0.00,−0.05,0.04,not active
"CCCCC/C=C\C/C=C\C/C=C\C/C=C\CCCC(=O)O [Cpd 13, ARACHIDONIC ACID (20:4 n-6)]",0.03,0.02,−0.05,0.01,
"CCCCC/C=C\C/C=C\C/C=C\C=C\[C@@H](O)CCCC(=O)O (racemic) [Cpd 2, (±)5-HETE]",0.01,0.01,−0.05,0.02,
"CCCCC/C=C\C/C=C\C/C=C\C=C\[C@H](CCCC(=O)O)OO [Cpd 6, 5(S)-HPETE]",0.01,0.00,−0.01,0.03,
"OCCN(CCO)c1nc(N2CCCCC2)c2nc(N(CCO)CCO)nc(N3CCCCC3)c2n1 [Cpd 15, Dipyridamole]",0.11,0.39,−0.04,0.38,
"CCCCCCCC/C=C\C/C=C\C=C\C(O)CCCC(=O)O (racemic) [Cpd 4, (±)5-HETrE]",0.03,0.01,−0.01,0.01,
"CCCCC/C=C\C=C\[C@@H](O)C/C=C\C/C=C\CCCC(=O)O [Cpd 3, 11(S)-HETE]",0.00,0.00,−0.03,−0.04,
"CCCCC/C=C\C/C=C\C/C=C\C/C=C\CCCC(=O)OC(CO)COC(=O)CCCCCCCCCCCCCCCCC (stereo not shown) [Cpd 11, 1-STEAROYL-2-ARACHIDONOYL-GLYCEROL]",−0.01,−0.01,−0.05,0.01,
